# Test results: US8623860B2, “Azetidine derivatives, pharmaceutical compositions and uses thereof” (Boehringer Ingelheim International GmbH, priority 2011, dated 2014)
# Molecular target: human ACC2 (Homo sapiens (Human), UniProt O00763)
# Experiment: ACC2 assay, spectrophotometric 384 well assay (NADH-linked, coupled lactate dehydrogenase/pyruvate kinase reaction)
# Format: biochemical
# Settings: hACC2 construct lacking the 128 N-terminal amino acids; 25° C., 340 nm, 15 minutes
# Procedure: Spectrophotometric 384 Well Assay
# Malonyl CoA formation by acetyl CoA carboxylases is stoichometrically linked to the consumption of ATP. ACC2 activity is measured in a NADH-linked kinetic method measuring ADP generated during the ACC reaction using a coupled lactate dehydrogenase/pyruvate kinase reaction.
# For biological testing, a human ACC2 construct which lacks the 128 amino acids at the N-terminus for increased solubility (nt 385-6966 in Genbank entry AJ575592) is cloned. The protein is then expressed in insect cells using a baculoviral expression system. Protein purification is performed by anion exchange.
# All compounds are dissolved in dimethyl sulfoxide (DMSO) to a concentration of 10 mM.
# Assay reactions are then carried out in 384-well plates, with hACC2 in an appropriate dilution and at final assay concentrations (f.c.) of 100 mM Tris (pH 7.5), 10 mM trisodium citrate, 25 mM KHCC3, 10 mM MgCl2, 0.5 mg/ml BSA, 3.75 mM reduced L-glutathione, 15 U/ml lactate dehydrogenase, 0.5 mM phosphoenolpyruvate, 15 U/ml pyruvate kinase, compounds at different concentrations at final DMSO concentrations of 1%.
# The enzymatic reaction is then started by addition of a mixture of NADH, acetyl Coenzyme A (both 200 μM f.c.) and ATP (500 uM f.c.). The decrease of the optical density (slope S) is then determined at 25° C. at a wavelength of 340 nm over 15 minutes in a spectrophotometric reader.
# Each assay microtiter plate contains wells with vehicle instead of compound as controls for the non-inhibited enzyme (100% CTL; ‘HIGH’) and wells without acetyl-CoA as controls for non-specific NADH degradation (0% CTL; ‘LOW’).
# The slope S is used for calculation of % CTL=(S(compound)−S(‘LOW’))/(S(‘HIGH’)−S(‘LOW’))*100. Compounds will give values between 100% CTL (no inhibition) and 0% CTL (complete inhibition).
# For IC50 value determination, the sample slope in the presence of the test compound after subtraction of the low controls (S(compound)−S(‘LOW’)) are used.
# An IC50 value is derived from the compound slopes at different dosages after subtraction of the low controls (S(compound)−S(‘LOW’)) by non-linear regression curve fitting (equation y=(A+((B−A)/(1+((C/x)^D))))).
# In the following table the activity expressed as IC50 (μM) of compounds according to the invention is presented wherein the IC50 values are determined in the ACC2 assay as described hereinbefore. The term “Ex.” refers to the example numbers according to the following experimental section.
# human ACC2, sequence (O00763 129-2458): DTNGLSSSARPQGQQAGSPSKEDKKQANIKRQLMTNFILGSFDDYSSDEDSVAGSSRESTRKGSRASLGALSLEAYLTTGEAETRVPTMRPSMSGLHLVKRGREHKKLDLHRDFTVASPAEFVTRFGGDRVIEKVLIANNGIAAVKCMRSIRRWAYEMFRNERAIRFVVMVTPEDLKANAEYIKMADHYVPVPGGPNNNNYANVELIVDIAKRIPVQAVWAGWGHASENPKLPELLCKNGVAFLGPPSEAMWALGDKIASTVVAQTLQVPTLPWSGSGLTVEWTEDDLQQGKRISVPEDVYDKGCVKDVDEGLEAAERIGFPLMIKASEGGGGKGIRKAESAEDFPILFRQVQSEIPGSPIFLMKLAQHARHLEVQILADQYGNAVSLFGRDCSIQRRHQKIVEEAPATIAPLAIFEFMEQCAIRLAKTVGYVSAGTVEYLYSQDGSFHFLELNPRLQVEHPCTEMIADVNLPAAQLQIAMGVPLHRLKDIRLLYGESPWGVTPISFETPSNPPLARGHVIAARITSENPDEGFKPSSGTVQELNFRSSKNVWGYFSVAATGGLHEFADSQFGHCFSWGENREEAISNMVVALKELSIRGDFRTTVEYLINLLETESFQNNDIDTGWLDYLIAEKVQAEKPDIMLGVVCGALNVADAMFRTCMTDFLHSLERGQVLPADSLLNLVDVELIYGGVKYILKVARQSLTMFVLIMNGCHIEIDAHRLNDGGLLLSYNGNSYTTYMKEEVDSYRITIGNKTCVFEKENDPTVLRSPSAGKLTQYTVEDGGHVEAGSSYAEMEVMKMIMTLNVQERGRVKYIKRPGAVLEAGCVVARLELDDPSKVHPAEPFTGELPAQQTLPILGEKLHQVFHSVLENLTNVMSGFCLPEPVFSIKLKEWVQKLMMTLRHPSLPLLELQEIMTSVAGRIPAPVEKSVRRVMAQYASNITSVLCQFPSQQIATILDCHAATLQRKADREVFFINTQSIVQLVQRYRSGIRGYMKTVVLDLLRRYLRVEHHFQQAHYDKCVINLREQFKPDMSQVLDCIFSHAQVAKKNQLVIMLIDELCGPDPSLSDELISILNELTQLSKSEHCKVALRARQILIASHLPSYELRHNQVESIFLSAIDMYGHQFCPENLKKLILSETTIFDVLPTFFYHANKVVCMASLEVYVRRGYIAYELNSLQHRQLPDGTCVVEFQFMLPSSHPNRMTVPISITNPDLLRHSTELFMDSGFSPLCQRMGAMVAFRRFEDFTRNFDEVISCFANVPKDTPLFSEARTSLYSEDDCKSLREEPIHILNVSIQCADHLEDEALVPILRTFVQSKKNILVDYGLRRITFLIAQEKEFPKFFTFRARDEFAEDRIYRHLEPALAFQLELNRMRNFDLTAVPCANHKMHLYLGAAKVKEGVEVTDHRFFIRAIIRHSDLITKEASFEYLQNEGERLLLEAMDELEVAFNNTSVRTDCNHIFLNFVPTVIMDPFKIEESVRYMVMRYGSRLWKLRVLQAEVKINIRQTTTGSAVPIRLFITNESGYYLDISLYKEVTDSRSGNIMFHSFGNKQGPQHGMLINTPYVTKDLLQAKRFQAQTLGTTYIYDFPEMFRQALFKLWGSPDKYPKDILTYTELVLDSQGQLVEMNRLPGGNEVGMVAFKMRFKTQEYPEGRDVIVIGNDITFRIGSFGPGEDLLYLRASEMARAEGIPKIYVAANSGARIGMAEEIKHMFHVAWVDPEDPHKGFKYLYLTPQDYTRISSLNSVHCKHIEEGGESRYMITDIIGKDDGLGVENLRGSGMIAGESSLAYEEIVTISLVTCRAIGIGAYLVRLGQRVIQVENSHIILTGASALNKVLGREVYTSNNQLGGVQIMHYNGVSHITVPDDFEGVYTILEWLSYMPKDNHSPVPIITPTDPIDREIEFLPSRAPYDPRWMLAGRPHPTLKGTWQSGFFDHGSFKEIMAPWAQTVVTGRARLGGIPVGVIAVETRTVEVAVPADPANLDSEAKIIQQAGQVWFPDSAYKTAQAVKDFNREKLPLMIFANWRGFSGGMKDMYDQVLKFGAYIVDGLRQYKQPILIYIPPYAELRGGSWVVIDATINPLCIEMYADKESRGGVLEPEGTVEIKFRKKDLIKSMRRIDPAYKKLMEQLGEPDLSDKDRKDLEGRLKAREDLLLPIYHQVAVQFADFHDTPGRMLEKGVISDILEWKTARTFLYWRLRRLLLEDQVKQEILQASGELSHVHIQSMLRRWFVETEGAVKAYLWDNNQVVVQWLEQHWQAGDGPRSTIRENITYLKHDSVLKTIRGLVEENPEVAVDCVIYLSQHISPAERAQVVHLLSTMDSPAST
row,IC50 [nM],Structure (SMILES)
1,1180,Cc1nocc1C(=O)N[C@@H](C)c1ccc(C2CN(c3ccc4c(c3)OCCO4)C2)cc1 [Example 3.65]
2,3600,CC(Cc1ccc(C2CN(c3ccc4c(c3)OCCO4)C2)cc1)NC(=O)C(F)F (centres unmarked) [Example 3.84]
3,1520,C[C@H](NC(=O)c1ccns1)c1ccc(C2CN(c3ccc(OCC4CC4)cc3)C2)cc1 [Example 3.39]
4,2400,CC(=O)Nc1cc(C(=O)N[C@@H](C)c2ccc(C3CN(c4ccc5c(c4)OCCO5)C3)cc2)ccn1 [Example 3.69]
5,2180,CC(=O)Nc1cncc(C(=O)N[C@@H](C)c2ccc(C3CN(c4ccc(OCC5CC5)cc4)C3)cc2)c1 [Example 3.51]
6,1730,CC(=O)Nc1cncc(C(=O)NC(C)Cc2ccc(C3CN(c4ccc(OCC5CC5)cc4)C3)cc2)c1 (centres unmarked) [Example 3.05]
7,1010,CC(=O)N[C@@H](C)c1ccc(C2CN(c3nc(N(C)CC(F)F)ncc3F)C2)cc1 [Example 4.2]
8,1020,C[C@H](NC(=O)C1CCOC1)c1ccc(C2CN(c3ccc(OCC4CC4)cc3)C2)cc1 (some centres unmarked) [Example 3.20]
9,940,CCC(=O)N[C@@H](C)c1ccc(C2CN(c3ccc(OCC4CC4)cc3)C2)cc1 [Example 3.42]
10,2970,CC(Cc1ccc(C2CN(c3ccc(OCC4CC4)cc3)C2)cc1)NC(=O)Cc1cc[nH]c1 (centres unmarked) [Example 3.13]
11,1000,CCC(=O)N[C@@H](C)c1ccc(C2CN(c3ccc4c(c3)OCCO4)C2)cc1 [Example 3.68]
12,2190,CC(=O)Nc1cccc(C(=O)N[C@@H](C)c2ccc(C3CN(c4ccc(OCC5CC5)cc4)C3)cc2)c1 [Example 3.36]
13,1680,CC(=O)NCCCC(=O)NC(C)Cc1ccc(C2CN(c3ccc(OCC4CC4)cc3)C2)cc1 (centres unmarked) [Example 3.67]
14,1700,CC(Cc1ccc(C2CN(c3ccc(OCC4CC4)cc3)C2)cc1)NC(=O)c1ccon1 (centres unmarked) [Example 3.77]
15,2580,CC(Cc1ccc(C2CN(c3ccc(OCC4CC4)cc3)C2)cc1)NC(=O)C1(C#N)CC1 (centres unmarked) [Example 3.07]
16,2650,COC1CC(C(=O)N[C@@H](C)c2ccc(C3CN(c4ccc(OCC5CC5)cc4)C3)cc2)C1 (some centres unmarked) [Example 3.23]
17,1670,C[C@H](NC(=O)Cn1cncn1)c1ccc(C2CN(c3ccc(OCC4CC4)cc3)C2)cc1 [Example 3.29]
18,970,C=CCC(=O)N[C@@H](C)c1ccc(C2CN(c3ccc4c(c3)OCCO4)C2)cc1 [Example 3.66]
19,3010,C[C@H](NC(=O)c1ccnnc1)c1ccc(C2CN(c3ccc(OCC4CC4)cc3)C2)cc1 [Example 3.58]
20,2520,CC(F)C(=O)N[C@@H](C)c1ccc(C2CN(c3ccc4c(c3)OCCO4)C2)cc1 (some centres unmarked) [Example 3.61]
21,1020,C[C@H](NC(=O)C(F)F)c1ccc(C2CN(c3ccc4c(c3)OCCO4)C2)cc1 [Example 3.70]
22,1640,CC(=O)Nc1nc(C(=O)N[C@@H](C)c2ccc(C3CN(c4ccc(OCC5CC5)cc4)C3)cc2)cs1 [Example 3.31]

row,IC50 [nM],Structure (SMILES)
1,2730,CC(Cc1ccc(C2CN(c3ccc(OCC4CC4)cc3)C2)cc1)NC(=O)C(F)F (centres unmarked) [Example 3.12]
2,3050,COCC(=O)NC(C)Cc1ccc(C2CN(c3ccc(OCC4CC4)cc3)C2)cc1 (centres unmarked) [Example 3.16]
3,1170,C[C@H](NC(=O)C1CC(F)C1)c1ccc(C2CN(c3ccc(OCC4CC4)cc3)C2)cc1 (some centres unmarked) [Example 3.37]
4,2300,CCOC(=O)C1(F)CC1C(=O)NC(C)Cc1ccc(C2CN(c3ccc(OCC4CC4)cc3)C2)cc1 (centres unmarked) [Example 3.79]
5,630,C=CCC(=O)N[C@@H](C)c1ccc(C2CN(c3ccc(OCC4CC4)cc3)C2)cc1 [Example 3.91]
6,450,C[C@H](NC(=O)c1cncs1)c1ccc(C2CN(c3ccc(OCC4CC4)cc3)C2)cc1 [Example 3.86]
7,2790,Cc1nocc1C(=O)NC(C)Cc1ccc(C2CN(c3ccc(OCC4CC4)cc3)C2)cc1 (centres unmarked) [Example 3.17]
8,2060,COCCC(=O)N[C@@H](C)c1ccc(C2CN(c3ccc(OCC4CC4)cc3)C2)cc1 [Example 3.30]
9,1130,C[C@H](NC(=O)c1cnco1)c1ccc(C2CN(c3ccc4c(c3)OCCO4)C2)cc1 [Example 3.44]
10,1210,CC(C#N)C(=O)N[C@@H](C)c1ccc(C2CN(c3ccc(OCC4CC4)cc3)C2)cc1 (some centres unmarked) [Example 3.28]
11,1460,C[C@H](NC(=O)C1(C#N)CC1)c1ccc(C2CN(c3ccc(OCC4CC4)cc3)C2)cc1 [Example 3.35]
12,3010,Cc1ncsc1C(=O)N[C@@H](C)c1ccc(C2CN(c3ccc(OCC4CC4)cc3)C2)cc1 [Example 3.25]
13,2880,C=CCC(=O)NC(C)Cc1ccc(C2CN(c3ccc4c(c3)OCCO4)C2)cc1 (centres unmarked) [Example 3.19]
14,1690,C[C@H](NC(=O)c1cnn(C)c1)c1ccc(C2CN(c3ccc4c(c3)OCCO4)C2)cc1 [Example 3.71]
15,2870,C[C@H](NC(=O)C1CC(F)C1)c1ccc(C2CN(c3ccc4c(c3)OCCO4)C2)cc1 (some centres unmarked) [Example 3.33]
16,1620,C[C@H](NC(=O)CO)c1ccc(C2CN(c3ccc(OCC4CC4)cc3)C2)cc1 [Example 3.82]
17,2380,C#CCCC(=O)N[C@@H](C)c1ccc(C2CN(c3ccc(OCC4CC4)cc3)C2)cc1 [Example 3.53]
18,2700,CC(C(=O)N[C@@H](C)c1ccc(C2CN(c3ccc(OCC4CC4)cc3)C2)cc1)C(F)(F)F (some centres unmarked) [Example 3.47]
19,2910,CC(Cc1ccc(C2CN(c3ccc(OCC4CC4)cc3)C2)cc1)NC(=O)C1CCC1 (centres unmarked) [Example 3.62]
20,1410,Cc1nc(C(=O)N[C@@H](C)c2ccc(C3CN(c4ccc(OCC5CC5)cc4)C3)cc2)c(C)s1 [Example 3.38]
21,1220,C[C@H](NC(=O)CC#N)c1ccc(C2CN(c3ccc(OCC4CC4)cc3)C2)cc1 [Example 3.78]

# More lines, now with the values behind:
row,Structure (SMILES),IC50 [nM]
1,CC(=O)N[C@@H](C)c1ccc(C2CN(c3ncc(OCC4CC4(F)F)cc3F)C2)cc1 (some centres unmarked) [Example 1.35],180
2,CCOc1ccc(N2CC(c3ccc(CC(C)NC(C)=O)cc3)C2)cc1 (centres unmarked) [Example 1.08],650
3,CC(=O)N[C@@H](C)c1ccc(C2CN(c3ccc(OCCCF)cn3)C2)cc1 [Example 1.34],830
4,CC(=O)N[C@@H](C)c1ccc(C2CN(c3ccc(OC4CCC4)cc3)C2)cc1 [Example 1.24],1630
5,CC(=O)N[C@@H](C)c1ccc(C2CN(c3ncc4nc(-c5ccccc5)oc4n3)C2)cc1 [Example 2.07],340
6,"CCCOc1ccc(N2CC(c3ccc(CC(C)NC(C)=O)cc3)C2)cc1 (centres unmarked) [Example 1.01, N-(1-(4-(1-(4-Propoxyphenyl)azetidin-3-yl)phenyl)propan-2-yl)acetamide]",510
7,CC(=O)N[C@@H](C)c1ccc(C2CN(c3ccc4c(c3)OCCO4)C2)cc1 [Example 1.27],170
8,CC(=O)NC(C)c1ccc(C2CN(c3ccc4c(c3)OCCO4)C2)cc1 (centres unmarked) [Example 1.20],490
9,CC(=O)NC(C)CCc1ccc(C2CN(c3ncc(C4CC4)cn3)C2)cc1 (centres unmarked) [Example 2.04],2560
10,CC(=O)NC(C)Cc1ccc(C2CN(c3cnc(OC4CCC4)nc3)C2)cc1 (centres unmarked) [Example 1.06],3810
11,CC(=O)NC(C)CCc1ccc(C2CN(c3cccc(OC(C)C)c3)C2)cc1 (centres unmarked) [Example 1.18],3180
12,"CC(=O)NC(C)Cc1ccc(C2CN(c3ncc(Br)cn3)C2)cc1 (centres unmarked) [Example 2.01, N-(1-(4-(1-(5-bromopyrimidin-2-yl)azetidin-3-yl)phenyl)propan-2-yl)acetamide]",8560
13,CCCc1cnc(N2CC(c3ccc(CC(C)NC(C)=O)cc3)C2)nc1 (centres unmarked) [Example 2.02],3790
14,CC(=O)NC(C)Cc1ccc(C2CN(c3ccc(C(C)(C)C)cc3)C2)cc1 (centres unmarked) [Example 1.09],2730
15,CCOc1cccc(N2CC(c3ccc([C@H](C)NC(C)=O)cc3)C2)c1 [Example 1.28],680
16,CC(=O)N[C@@H](C)c1ccc(C2CN(c3ccnc(N4CCOCC4)n3)C2)cc1 [Example 1.32],9040
17,CC(=O)NC(C)Cc1ccc(C2CN(c3ccc4c(c3)OCCO4)C2)cc1 (centres unmarked) [Example 1.13],950
18,CC(=O)NC(C)CCc1ccc(C2CN(c3ccc(OC4CC4)cc3)C2)cc1 (centres unmarked) [Example 1.15],480
19,CCCOc1cc(N2CC(c3ccc(CC(C)NC(C)=O)cc3)C2)ccn1 (centres unmarked) [Example 1.12],610
20,CC(=O)N[C@@H](C)c1ccc(C2CN(c3ccc(OCC4CC4(F)F)cn3)C2)cc1 (some centres unmarked) [Example 1.31],600
21,CCCOc1ccc(N2CC(c3ccc(CC(C)NC(C)=O)cc3)C2)cn1 (centres unmarked) [Example 1.05],900
22,CCOc1ccc(N2CC(c3ccc(CCC(C)NC(C)=O)cc3)C2)cc1 (centres unmarked) [Example 1.16],410
